Experimental data from patent US5298494A, “Monosaccharides having anti-proliferation and anti-inflammatory activity, compositions and uses thereof” (Greenwich Pharmaceuticals Incorporated, priority 1993, dated 1994).
Where two headings read alike, the source gives them in different places.

Test system: T lymphocytes (normal mouse spleen cells) stimulated with ConA
Assay: Mouse Spleen Cell ConA Blastogenesis Assay
Type: cell-based, mouse (C57Bl/6)
Conditions: for inhibition at 1 µg/mL / inhibition at 2.5 µg/mL / inhibition at 10 µg/mL / inhibition at 25 µg/mL / inhibition at 100 µg/mL / inhibition at 0.001 µg/mL / inhibition at 0.01 µg/mL / inhibition at 0.1 µg/mL: Mus musculus, T-lymphocyte; for strong antiproliferative effect on ConA blastogenic response: concentration not given
[1] = ConA 1 ug/ml, compound 1 ug/ml, read-out: % change from control, ConA blastogenic response
[2] = ConA 1 ug/ml, compound 2.5 ug/ml, read-out: % change from control, ConA blastogenic response
[3] = ConA 1 ug/ml, compound 10 ug/ml, read-out: % change from control, ConA blastogenic response
[4] = ConA 1 ug/ml, compound 25 ug/ml, read-out: % change from control, ConA blastogenic response
[5] = ConA 1 ug/ml, compound 100 ug/ml, read-out: % change from control, ConA blastogenic response
[6] = ConA 4 ug/ml, compound 1 ug/ml, read-out: % change from control, ConA blastogenic response
[7] = ConA 4 ug/ml, compound 2.5 ug/ml, read-out: % change from control, ConA blastogenic response
[8] = ConA 4 ug/ml, compound 10 ug/ml, read-out: % change from control, ConA blastogenic response
[9] = ConA 4 ug/ml, compound 25 ug/ml, read-out: % change from control, ConA blastogenic response
[10] = ConA 4 ug/ml, compound 100 ug/ml, read-out: % change from control, ConA blastogenic response
[11] = ConA 1 ug/ml, compound 0.01 ug/ml, read-out: % change from control, ConA blastogenic response
[12] = ConA 1 ug/ml, compound 0.1 ug/ml, read-out: % change from control, ConA blastogenic response
[13] = ConA 4 ug/ml, compound 0.01 ug/ml, read-out: % change from control, ConA blastogenic response
[14] = ConA 4 ug/ml, compound 0.1 ug/ml, read-out: % change from control, ConA blastogenic response

| SMILES | inhibition at 1 µg/mL [1] | inhibition at 2.5 µg/mL [2] | inhibition at 10 µg/mL [3] | inhibition at 25 µg/mL [4] | inhibition at 100 µg/mL [5] | inhibition at 1 µg/mL [6] | inhibition at 2.5 µg/mL [7] | inhibition at 10 µg/mL [8] | inhibition at 25 µg/mL [9] | inhibition at 100 µg/mL [10] | strong antiproliferative effect on ConA blastogenic response | inhibition at 0.01 µg/mL [11] | inhibition at 0.1 µg/mL [12] | inhibition at 0.01 µg/mL [13] | inhibition at 0.1 µg/mL [14] | also measured |
| --- | --- | --- | --- | --- | --- | --- | --- | --- | --- | --- | --- | --- | --- | --- | --- | --- |
| CC1(C)OC2OC(C(O)COCCCc3ccccc3)C(O)C2O1 [IIIe, 1,2-O-Isopropylidene-6-O-3'-(phenylpropyl)-α-D-glucofuranose] | 78% | 94% | 98% | 99% | 99% | 76% | 91% | 97% | 99% | 100% | greater than -50 % of control |  |  |  |  |  |
| CN1CCCC1CCNC[C@H]1OC(C)(C)O[C@@H]2[C@H]3OC(C)(C)O[C@H]3O[C@@H]21 (some centres unmarked) [IIIi] | -25% | -16% | -10% | 23% | 91% | 9% | 14% | 9% | 50% | 95% | greater than -50 % of control |  |  |  |  |  |
| CCCCCCCOC[C@H]1O[C@@]2(OC)COC(C)(C)O[C@H]2[C@@H]1O [Ia, methyl 1,3-O-isopropylidene-6-O-heptyl-α-D-fructofuranoside] | -1% | 15% | 52% | 97% | 99% | 9% | 25% | 41% | 84% | 93% |  | 19% | -28% | 14% | -5% | effect on ConA T lymphocyte proliferation in words: dose-dependent, significant, inhibitory effect; Blastogenic response of normal spleen cells to Con-A (ConA 1 ug/ml, compound 0.001 ug/ml): 52.6 ± 3.8 × 10^-3 cpm; Blastogenic response of normal spleen cells to Con-A (ConA 1 ug/ml, compound 0.01 ug/ml): 45.1 ± 4.9 × 10^-3 cpm; Blastogenic response of normal spleen cells to Con-A (ConA 1 ug/ml, compound 0.1 ug/ml): 71.1 ± 4.9 × 10^-3 cpm; Blastogenic response of normal spleen cells to Con-A (ConA 1 ug/ml, compound 1 ug/ml): 55.7 ± 8.4 × 10^-3 cpm; Blastogenic response of normal spleen cells to Con-A (ConA 1 ug/ml, compound 2.5 ug/ml): 47.2 ± 7.0 × 10^-3 cpm; Blastogenic response of normal spleen cells to Con-A (ConA 1 ug/ml, compound 10 ug/ml): 26.5 ± 8.8 × 10^-3 cpm; Blastogenic response of normal spleen cells to Con-A (ConA 1 ug/ml, compound 25 ug/ml): 1.5 ± 0.4 × 10^-3 cpm; Blastogenic response of normal spleen cells to Con-A (ConA 1 ug/ml, compound 100 ug/ml): 0.6 ± 0.1 × 10^-3 cpm; Blastogenic response of normal spleen cells to Con-A (ConA 4 ug/ml, compound 0.001 ug/ml): 68.7 ± 5.0 × 10^-3 cpm; Blastogenic response of normal spleen cells to Con-A (ConA 4 ug/ml, compound 0.01 ug/ml): 72.8 ± 0.8 × 10^-3 cpm; Blastogenic response of normal spleen cells to Con-A (ConA 4 ug/ml, compound 0.1 ug/ml): 88.8 ± 2.4 × 10^-3 cpm; Blastogenic response of normal spleen cells to Con-A (ConA 4 ug/ml, compound 1 ug/ml): 77.0 ± 4.2 × 10^-3 cpm; Blastogenic response of normal spleen cells to Con-A (ConA 4 ug/ml, compound 2.5 ug/ml): 63.8 ± 2.3 × 10^-3 cpm; Blastogenic response of normal spleen cells to Con-A (ConA 4 ug/ml, compound 10 ug/ml): 50.2 ± 3.4 × 10^-3 cpm; Blastogenic response of normal spleen cells to Con-A (ConA 4 ug/ml, compound 25 ug/ml): 13.7 ± 2.0 × 10^-3 cpm; Blastogenic response of normal spleen cells to Con-A (ConA 4 ug/ml, compound 100 ug/ml): 6.3 ± 2.2 × 10^-3 cpm; inhibition at 0.001 µg/mL (ConA 1 ug/ml, compound 0.001 ug/ml, read-out: % change from control, ConA blastogenic response): 5%; inhibition at 0.001 µg/mL (ConA 4 ug/ml, compound 0.001 ug/ml, read-out: % change from control, ConA blastogenic response): 19% |
| CCCCC/C=C/COC[C@H]1O[C@@]2(OC)COC(C)(C)O[C@H]2[C@@H]1OC/C=C/CCCCC [Ie, methyl 1,3-O-isopropylidene-4,6-di-O-(trans,2-octenyl)-α-D-fructofuranoside] | 34% | 72% | 91% | 99% | 100% | 59% | 79% | 92% | 99% | 100% |  | 22% | 18% | 4% | 9% | inhibition at 0.01 µg/mL (ConA 1 ug/ml, 0.01 ug/ml, read-out: % Change from Control (Table II)): 2%; inhibition at 0.01 µg/mL (ConA 4 ug/ml, 0.01 ug/ml, read-out: % Change from Control (Table II)): 8% |
